Measurements published in patent publication US9095567B2, “Vaccine formulations” (priority 2010, dated 2015).
“Also recorded” adds a separate entry of the source.

What was measured:
E. coli = test system: E. coli
Procedure: To represent the worst reasonable case of contamination that may occur in practice during the repeated use of a multi-dose presentation, WHO requires safety testing with deliberate exposure to multiple contamination events using bacterial strains, Pseudomonas Aeruginosa (“PA”), Staphylococcus Aureus (“SA”), Escherichia coli (“EC”) and Bacillus subtilis (“BA”). Formulations are spiked with 5×10^3 CFU/ml of each organism at times 0, 6 hours, 24 hours, 7 days and 14 days after initial challenge and stored either at 2-8° C. or at 22-24° C. to mimic the potential storage conditions in practice.
To assess the appropriateness of WHO multi-dose Open Vial Policy of vaccines in multiple immunization sessions for up to maximum of four weeks, experimental design provided by WHO was implemented. In this study, the effectiveness of Thimerosal was evaluated at the concentration that is present in the majority of U.S. licensed vaccines (0.01%), as well as at a higher concentration of 0.02%. To represent the worst reasonable case of contamination that may occur in practice during the repeated use of a multi-dose presentation, and to test WHO requirements, Prev(e)nar 13 vaccine formulations with 0.01 or 0.02% Thimerosal or with 5.0 mg/dose of 2-PE were deliberately exposed to multiple contamination events using WHO recommended bacterial strains, P. aeruginosa, S. aureus, E. coli and B. subtilis. […]

[1] = 2-PE concentration on storage (Reversed-Phase HPLC assay)
Procedure: 2-EP concentration may be measured with a Reversed-Phase HPLC assay, also as described in Example 3. A Reversed-Phase HPLC assay may be performed in the following manner: Samples are vortexed and diluted 1:10 into 5 mM Succinate buffer in saline, centrifuged and diluted again 1:10 into 5 mM succinate buffer in saline (final dilution of the Test Sample is 1:100). The sample is then assayed utilizing the Agilent Eclipse XDB-C18 HPLC column and a linear gradient of water and acetonitrile containing trifluoroacetic acid. The quantification of the preservative is then compared to a standard curve.
2-PE concentration was measured with a Reversed-Phase HPLC assay. Samples were vortexed and diluted 1:10 into 5 mM Succinate buffer in saline, centrifuged and diluted again 1:10 into 5 mM succinate buffer in saline. Final dilution of the Test Sample was 1:100. The assay utilized the Agilent Eclipse XDB-C18 HPLC column and a linear gradient of water and acetonitrile containing trifluoroacetic acid. 2-PE in 13vPnC Multi-Dose Vaccine samples was quantified against a 2-PE standard curve.

Structure (SMILES) | reduction of E. coli (E. coli; 0.01% Thimerosal in Prev(e)nar 13, multiple challenges, particularly at 2-8° C.) | rate of decay of E. coli in saline formulation versus vaccine formulation (E. coli; 0.02% Thimerosal, multiple challenges) | concentration of 2-PE in the formulation on storage ([1]; Prev(e)nar 13 formulation stored at 2-8° C. (two and a half years)) | concentration of 2-PE in the formulation on storage ([1]; Prev(e)nar 13 formulation stored at 37° C. (a month))
C[CH2][Hg][S]c1ccccc1C(=O)[O-].[Na+] [Thimerosal] | slow | more pronounced | – | –
OCCOc1ccccc1 [2-PE, 2-phenoxyethanol] | – | – | similarly stable; also recorded: did not change | similarly stable; also recorded: did not change
